Reference: article PMC9919490, “Synthesis and Biological Evaluation of Novel Dispiro-Indolinones with Anticancer Activity” (Molecules, 2023)
Where two headings read alike, the source gives them in different places.

Tests used:
[1] = system: MDM2; details: binding to MDM2; cited from earlier work
[2] = system: HCT^−/− cells; assay: MTT cytotoxicity assay, HCT^−/− (p53 neg); format: cell-based; details: 48 h
Description: (§1) The synthesized compounds were tested for their ability to block the proliferation of the selected model cell lines: LNCaP (p53+), PC3 (p53-), HCT^wt (p53+), and HCT^−/− (p53-) cells. The assay was carried out using the standard MTT (3-(4,5-dimethylthiazol-2-yl)2,5-diphenyl tetrazolium bromide) assay based on the modified approach reported by Ferrari and colleagues. […] Differences in IC50 values against these cell lines were used to assess the selectivity of the compounds.
(§2) Model cell lines were purchased from the in stock collection of the N.N. Blokhin Russian Cancer Research Center (RAMS). Cells were accurately maintained in the recommended media, supplemented with 10% heat-inactivated FBS (Invitrogen) and 2 mmol/L L-glutamine (Invitrogen).
(§3) First, 4000 cells per well were plated out in 140 µL of DMEM (with 10% FBS) in 96-well plates and incubated in 5% CO2 for 24 h at 37 °C without treatment. […] The cells were treated for 48 h with […] (eight dilutions) concentrations of the substances (each in triplicate) or doxorubicin (0.3 nM–600 nM, eight dilutions) as a control substance. After the incubation, 15 µL of MTT solution in PBS (5 mg/mL) was added, and the cells were incubated for 2 h, followed by removal of the media and addition of 120 µL of DMSO. […] Cell survival rates were determined by the comparison of optical density with the corresponding untreated control cell culture. Dose-dependent curves and the corresponding IC50 values were calculated using “GraphPad Prism 6” software (GraphPad Software, Inc., San Diego, CA, USA).

[3] = system: LNCaP; details: MTT assay; cited from earlier work
[4] = system: p53, PUMA, CASPASE-3 in HCTwt cells; assay: Western blot, p53 and p53-dependent apoptosis proteins; format: cell-based; details: HCTwt cell culture, increasing concentration; nutlin-3a 20 µM positive control
Description: To verify the mechanism of cytotoxic action of the synthesized dispiro-indolinones, Western blot testing of dispiro-indolinone 29 was performed using the p53-expressing HCTwt and LNCaP cell lines. Both the p53 protein and the proteins involved in the p53-dependent process of apoptosis (i.e., BAX, NOXA, and PUMA) were determined. For comparison, similar testing was carried out for a cell line not expressing p53 (HCT^(−/−)).

[5] = system: HCT116; details: dye assay, sulforhodamine B; cited from earlier work
[6] = system: PC3 cells; assay: MTT cytotoxicity assay, PC3 (p53 neg); format: cell-based; details: 48 h
Description: as §1, §2, §3

[7] = system: PC3 cells; set-up: method as in earlier work; details: dye assay with sulforhodamine B; cited from earlier work
[8] = system: HCT^wt cells; assay: MTT cytotoxicity assay, HCT^wt (p53 pos); format: cell-based; details: 48 h
Description: as §1, §2, §3

[9] = at 50 mg/kg, mice; cited from earlier work
[10] = target: MDM2; details: no reference given; cited from earlier work
[11] = set-up: method as in PMID 25384157; details: rats; cited from earlier work
[12] = system: HCT116wt; assay: Mechanism of cell death, flow cytometry 7AAD/annexin V, HCT116wt; format: cell-based; details: 7AAD/annexin V staining
[13] = system: LNCaP cells; assay: MTT cytotoxicity assay, LNCaP (p53 pos); format: cell-based; details: 48 h
Description: as §1, §2, §3

[14] = system: PC3; assay: Mechanism of cell death, flow cytometry 7AAD/annexin V, PC3; format: cell-based; details: 7AAD/annexin V staining
[15] = system: HCT116p53−/−; assay: Mechanism of cell death, flow cytometry 7AAD/annexin V, HCT116p53−/−; format: cell-based; details: 7AAD/annexin V staining
[16] = system: SJSA1 human osteosarcoma cells; details: cited from earlier work
[17] = system: xenograft models of human cancer; set-up: method as in PMID 26041888; details: two types of xenograft models, oral administration; cited from earlier work
[18] = system: MDM2–p53 PPI; details: Figure 5a, template molecules; cited from earlier work

COc1ccc(C2=N[C@@H](c3ccc(Cl)cc3)[C@@H](c3ccc(Cl)cc3)N2C(=O)N2CCNC(=O)C2)c(OC(C)C)c1 [Nutlin-3a, reference compound]
IC50 [1]: […] | IC50 [2]: > 100 µM | CC50 [3]: 1.5 µM | concentration / expression of the p53 protein [4]: […] | CC50 [5]: 4.63 ± 0.78 µM | IC50 [6]: 28.9 ± 3.7 µM | CC50 [7]: 6.37 ± 1 µM | IC50 [8]: 4.5 ± 1.3 µM

CC(C)(C)C[C@H]1N[C@@H](C(=O)NCC[C@H](O)CO)[C@H](c2cccc(Cl)c2)[C@@]12C(=O)Nc1cc(Cl)c(F)cc12.Cl [MI-219]
oral bioavailability [9]: 55–65% | Ki [10]: 0.005 µM

CC[C@@H]([C@H](C)O)N1C(=O)[C@@](C)(CC(=O)O)C[C@H](c2cccc(Cl)c2)[C@H]1c1ccc(Cl)cc1 [AM-8553]
oral bioavailability [11]: 100%

CN1C[C@H](c2ccc(Cl)cc2)[C@]2(NC(=S)N(c3ccccc3)C2=O)[C@]12C(=O)Nc1ccc(Br)cc12 (racemic) [Compound 13]
IC50 [2]: > 100 µM | mechanism of cell death [12]: early apoptosis | IC50 [13]: 1.2 ± 0.6 µM | mechanism of cell death [14]: early apoptosis | mechanism of cell death [15]: necrosis/late apoptosis | IC50 [6]: 11.3 ± 1.2 µM | IC50 [8]: 3.5 ± 1.2 µM

CC(C)(C)C[C@@H]1N[C@@H](C(=O)N[C@H]2C[C@@](C)(O)C2)[C@H](c2cccc(Cl)c2F)[C@]12C(=O)Nc1cc(Cl)ccc12 [MI-888]
IC50 [16]: ~0.09 µM | tumor regression [17]: rapid, complete, and durable tumor regression

CC(C)(C)CC1NC(C(=O)NCCN)C(c2cccc(Cl)c2F)C12C(=O)Nc1cc(Cl)ccc12 (stereo not drawn) [XX]
IC50 [18]: 0.0094 µM
